Paper PMC6588697, “Lugdunin amplifies innate immune responses in the skin in synergy with host- and microbiota-derived factors” (Nature Communications, 2019)
Several values for one entry are separate records, joined by “and”; a condition that tells them apart may be missing. Identical values can stand only once.

What was measured:
mouse skin = test: Cytokines in mouse skin culture supernatant after epicutaneous treatment; format: in vivo, C57BL/6 WT, MyD88-ko, 5xTLR-ko mice; conditions: 1.5 µg lugdunin epicutaneous 24 h; for MIP-2 concentration in skin culture supernatant: Fig 2e; for IL-1α concentration in skin culture supernatant: Fig 2d
Protocol: (§1) Fig. 2 Induction of chemokine (C-X-C motif) ligand 8/macrophage inflammatory protein-2 (CXCL8/MIP-2) by lugdunin is TLR2/MyD88-dependent. a HEK-control or HEK-TLR2 cells were treated with 2 μM lugdunin for 5 h and subsequently the CXCL8 concentration in the supernatant was analyzed by LEGENDplex^TM (BioLegend). Shown is one representative experiment of three independent experiments with two technical replicates ± s.e.m. b HEK-control or HEK-TLR2 cells were treated with increasing concentrations of lugdunin for 5 h and subsequently expression of CXCL8 was analyzed and normalized to actin. Shown is one representative experiment of three independent experiments with two technical replicates ± s.e.m. c Schematic overview of the mouse experiments: 6–8-week-old female C5BL/6 WT, MyD88-knockout (ko), or 5xTLR-ko mice were epicutaneously treated with 1.5 µg lugdunin or phosphate-buffered saline (PBS) as a control. After 24 h, mice were euthanized, 4 mm skin punches were taken, and further cultured in vitro for 10 h followed by cytokine analysis of the culture supernatant by LEGENDplex^TM (BioLegend). d, e Shown are the mean concentrations of IL-1α (d) or MIP-2 (e) in the skin culture supernatant of two skin punches from four mice each ± s.e.m. Significant differences to control treatments were analyzed by an unpaired two-tailed t test (*P < 0.05; **P < 0.01; ***P < 0.001). f Representative MIP-2-stained paraffin-embedded mouse skin sections. Scale bar, 100 µM. Source data are provided as a Source Data file
For cytokine analysis from cell cultures, 10 µL of supernatant was used for cytokine analysis via the LEGENDplex^TM human inflammation panel (BioLegend). For cytokine analysis from mouse skin, 4 mm skin punches were cultured in an airlift system where only the dermis had access to medium for 10 h. Skin punches were cultured in RPMI containing 1% FCS (Biochrom/Merck Millipore), 1% penicillin and streptomycin (Gibco/Life Technologies) and 0.25 µg/mL amphotericin B (CELLnTEC). Ten microliters of a 3-fold dilution of culture supernatant was used for cytokine analysis via the LEGENDplex^TM mouse inflammation panel (BioLegend). Samples were acquired in duplicates using a BD LSRII flow cytometer (BD Biosciences) and LEGENDplex^TM Software (BioLegend).
For IL-1α analysis, 100 µL of cell culture supernatant was analyzed via ELISA (R&D Systems) according to manufacturer’s instruction. For MIP-2 analysis, 100 µL of a 5-fold dilution from skin cultures supernatant was used and analyzed via ELISA (R&D Systems) according to the manufacturer’s instruction. For LL-37 ELISA, ELISA plates (Nunc) were coated overnight at 4 °C with 100 µL of cell culture supernatant or 2-fold dilutions of LL-37 starting from 8 µg/mL. The next day, the plate was washed three times using PBS + 0.5% BSA + 0.05% Triton X-100, followed by incubation with 100 µL primary antibody against hCAP18/LL-37 (HycultBiotech, Cat#HM2071, 1:120 in PBS + 0.5% BSA + 0.05% Triton X-100) at 37 °C for 1 h. After washing, incubation with 100 µL secondary antibody (Cell Signaling, Cat#7076S, 1:3000 in PBS + 0.5% BSA + 0.05% Triton X-100) followed at 37 °C for 1 h. Subsequently, plates were washed and 100 µL TMB substrate solution (Cell Signaling) was added. Reaction was stopped with 50 µL 2 N H2SO4 and absorbance at 450 nm was measured using a Fluoroskan II (Labsystems).
To analyze the immune cell composition and cytokines in the skin, 15 µL containing 1.5 μg lugdunin or PBS as a control were epicutaneously applied for 24 h on the shaved back skin of C57BL/6 WT/MYD88-ko/5xTLR-ko mice. After 24 h, mice were euthanized and relevant skin areas or 4 mm skin punches were removed for immune cell analysis and LEGENDplex^TM (BioLegend) cytokine analysis. […]
55 c: Shown are the mean concentrations of the indicated cytokines in the supernatant of
56 the organ skin culture of two skin punches from four mice each +/- s.e.m. […]
61 Source data are provided as a Source Data file.

HEK293 cells = test: CXCL8 expression in HEK-control cells (qRT-PCR); format: cell-based, human; conditions: 5 h, Fig 2b
Protocol: as §1
(§2) Quantitative reverse transcription-polymerase chain reaction (qRT-PCR) was performed in 10 µL reaction volume with SYBR^TM Green PCR Master Mix (Thermo Fisher) according to the manufacturer’s instructions using a LightCycler 96 (Roche Life Science). The initial denaturation step was at 95 °C for 5 min, followed by 40 cycles with 10 s each for the denaturation step at 95 °C, the annealing at individual temperature, and the elongation at 72 °C. Primer sequences and respective annealing temperatures are listed in Supplementary Table 1. […]

HEK293-TLR2 cells = test: CXCL8 expression in HEK-TLR2 cells (qRT-PCR); format: cell-based, human; conditions: 5 h, two technical replicates, Fig 2b
Protocol: as §1, §2

[1] = 5xTLR-ko mice, punches cultured 10 h, single punches
[2] = MyD88-ko mice, punches cultured 10 h, single punches

Substance: Lugdunin
- MIP-2 concentration in skin culture supernatant (mouse skin; [1]): reduced
- IL-1α concentration in skin culture supernatant (mouse skin; [1]): still able to induce
- MIP-2 concentration in skin culture supernatant (mouse skin; [2]): completely impaired
- IL-1α concentration in skin culture supernatant (mouse skin; [2]): still able to induce
- MIP-2 concentration in skin culture supernatant (mouse skin; WT mice, punches cultured 10 h, single punches): induced
- IL-1α concentration in skin culture supernatant (mouse skin; WT mice, skin punches cultured 10 h, single punches (rows)): induced
- CXCL8 expression normalized to actin (HEK293 cells; lugdunin 0.5 µM, medium = 1, two technical replicates): 1.3 and 1.16
- CXCL8 expression normalized to actin (HEK293 cells; lugdunin 1 µM, two technical replicates): 1.15 and 1.02
- CXCL8 expression normalized to actin (HEK293 cells; lugdunin 2 µM, two technical replicates): 2.66 and 2.46
- CXCL8 expression normalized to actin (HEK293 cells; lugdunin 3 µM, two technical replicates): 1.96 and 1.97
- CXCL8 expression normalized to actin (HEK293 cells; lugdunin 5 µM, two technical replicates): 2.91 and 2.73
- CXCL8 expression normalized to actin (HEK293 cells; lugdunin 10 µM, two technical replicates): 1.84 and 1.91
- CXCL8 expression normalized to actin (HEK293-TLR2 cells; HEK-TLR2, lugdunin 0.5 µM, medium = 1): 2.676 and 2.042
- CXCL8 expression normalized to actin (HEK293-TLR2 cells; HEK-TLR2, lugdunin 1 µM): 1.404 and 1.257
- CXCL8 expression normalized to actin (HEK293-TLR2 cells; HEK-TLR2, lugdunin 2 µM): 3.918 and 4.112
- CXCL8 expression normalized to actin (HEK293-TLR2 cells; HEK-TLR2, lugdunin 3 µM): 4.408 and 3.864
- CXCL8 expression normalized to actin (HEK293-TLR2 cells; HEK-TLR2, lugdunin 5 µM): 6.364 and 6.916
- CXCL8 expression normalized to actin (HEK293-TLR2 cells; HEK-TLR2, lugdunin 10 µM): 9.415 and 10.232
